From patent publication US20230250096A1, “SUBSTITUTED PHENYL-1H-PYRROLO[2,3-c] PYRIDINE DERIVATIVES” (Janssen Pharmaceutica NV, priority 2021, published 2023)
One block for each compound: values may come before it.

Key:
[1] = molecular target: T1, menin/MLL (terbium chelate-labeled menin, FITC-MBM1 peptide) (Homo sapiens, UniProt O00255, T541A); test: Menin/MLL homogenous time-resolved fluorescence (HTRF) assay; assay type: binding; conditions: 30 min incubation
T1 construct: Menin (a.a 1-610-6xhis tag, 2.3 mg/mL in 20 mM Hepes)
T1 sequence (O00255 with tags, fused parts or gaps T541A): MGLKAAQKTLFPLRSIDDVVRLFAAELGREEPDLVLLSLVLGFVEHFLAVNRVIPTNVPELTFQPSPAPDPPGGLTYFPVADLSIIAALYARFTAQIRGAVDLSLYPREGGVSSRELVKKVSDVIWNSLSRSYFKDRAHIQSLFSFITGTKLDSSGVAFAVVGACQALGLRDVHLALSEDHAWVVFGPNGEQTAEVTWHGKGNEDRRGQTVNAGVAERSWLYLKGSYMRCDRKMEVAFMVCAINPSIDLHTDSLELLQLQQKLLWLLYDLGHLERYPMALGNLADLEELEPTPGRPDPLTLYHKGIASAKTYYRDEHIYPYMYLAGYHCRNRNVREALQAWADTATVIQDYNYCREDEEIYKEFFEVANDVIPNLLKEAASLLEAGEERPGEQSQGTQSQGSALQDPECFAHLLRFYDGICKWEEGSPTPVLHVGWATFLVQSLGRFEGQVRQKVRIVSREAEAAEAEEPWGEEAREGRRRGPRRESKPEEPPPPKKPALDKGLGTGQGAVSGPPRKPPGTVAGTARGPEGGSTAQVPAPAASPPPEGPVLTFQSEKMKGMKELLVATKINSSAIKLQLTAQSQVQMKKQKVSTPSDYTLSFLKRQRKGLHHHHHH
Method in brief: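 Terbium-labeled menin (a.a. 1-610, His-tagged; […]) pre-incubated 30 min with compound, then 75 nM FITC-MBM1 peptide added for 15 min at ambient temperature in Tris pH 7.5 buffer, 0.5% DMSO. HTRF 520/490 nm ratio read; IC50 from 11-point four-fold titrations, typically from 10 μM.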

[2] = system: MEIS1 mRNA expression; test: MEIS1 mRNA expression assay (Quantigene Singleplex) in MOLM14 cells; assay type: cell-based, human; conditions: Homo sapiens, MOLM-14, 48 h, 48 hours incubation
Method in brief: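 MOLM14 cells, 3,750/well, exposed to increasing compound concentrations for 48 h. MEIS1 mRNA measured by QuantiGene Singleplex branched-DNA hybridization (lysis 45 min, hybridization 18–22 h, both 55 °C), normalized to RPL28. IC50 fitted to background-corrected fold change versus DMSO.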

Compound: Cc1cncc2c1c(CC1CN(CC3CCOCC3)C1)cn2-c1ccc(F)cc1C(=O)N(C)C1CCOC1 (stereo not drawn) [Compound 269]
IC50 [1]: 1.7 nM
IC50 [2]: 18 nM

Compound: Cc1cncc2c1c(CC1CN(CC3CCOCC3)C1)cn2-c1ccc(F)cc1C(=O)N(C)[C@H]1C[C@@H](O)C1 [Compound 274]
IC50 [1]: 2.42 nM
IC50 [2]: > 1000 nM

Compound: Cc1cncc2c1c(CC1CN(CC3CCOCC3)C1)cn2-c1ccc(F)cc1C(=O)N(C)[C@H]1C[C@H](O)C1 [Compound 275]
IC50 [1]: 0.945 nM
IC50 [2]: > 1000 nM

Compound: Cc1cncc2c1c(CC1CN(CC3CCOCC3)C1)cn2-c1ccc(F)cc1C(=O)N(C)C1(CO)CC1 [Compound 277]
IC50 [1]: 0.481 nM
IC50 [2]: ~502 nM

Compound: Cc1cncc2c1c(CC1CN(CC3CCOCC3)C1)cn2-c1ccc(F)cc1C(=O)N(CCO)C1CC1 [Compound 278]
IC50 [1]: 0.323 nM
IC50 [2]: 342 nM

Compound: Cc1cncc2c1c(CC1CN(CC3CCOCC3)C1)cn2-c1ccc(F)cc1C(=O)N1C[C@H](O)C[C@@H]1C [Compound 282]
IC50 [1]: 3.27 nM
IC50 [2]: > 1000 nM

Compound: CNC(=O)c1cccc(CN2CC(Cc3cn(-c4ccc(F)cc4C(=O)N(C)C(C)C)c4cncc(C)c34)C2)c1 [Compound 283]
IC50 [1]: 0.61 nM
IC50 [2]: 440 nM

Compound: Cc1ccc(CN2CC(Cc3cn(-c4ccc(F)cc4C(=O)N(C)C(C)C)c4cncc(C)c34)C2)nn1 [Compound 284]
IC50 [1]: 4.19 nM
IC50 [2]: ~2360 nM

Compound: Cc1cc(CN2CC(Cc3cn(-c4ccc(F)cc4C(=O)N(C)C(C)C)c4cncc(C)c34)C2)[nH]n1 [Compound 285]
IC50 [1]: 1.49 nM
IC50 [2]: ~1330 nM

Compound: Cc1cncc2c1c(CC1CN(CC3(C)COC3)C1)cn2-c1ccc(F)cc1C(=O)N(C)C(C)C [Compound 286]
IC50 [1]: 0.046 nM
IC50 [2]: 59 nM

Compound: Cc1cncc2c1c(CC1CN(CC3CCOC3)C1)cn2-c1ccc(F)cc1C(=O)N(C)C(C)C (stereo not drawn) [Compound 287]
IC50 [1]: 0.034 nM
IC50 [2]: 26 nM

Compound: Cc1cncc2c1c(CC1CN(CC3CCCO3)C1)cn2-c1ccc(F)cc1C(=O)N(C)C(C)C (stereo not drawn) [Compound 288]
IC50 [1]: 0.059 nM
IC50 [2]: 43 nM

Compound: Cc1cncc2c1c(CC1CN(CC3CCCOC3)C1)cn2-c1ccc(F)cc1C(=O)N(C)C(C)C (stereo not drawn) [Compound 289]
IC50 [1]: 0.055 nM
IC50 [2]: 31 nM

Compound: Cc1cncc2c1c(CC1CN(C3CCCNC(=O)C3)C1)cn2-c1ccc(F)cc1C(=O)N(C)C(C)C (stereo not drawn) [Compound 290]
IC50 [1]: 0.393 nM
IC50 [2]: 170 nM

Compound: Cc1cncc2c1c(CC1CN(C3CCCN(C)C(=O)C3)C1)cn2-c1ccc(F)cc1C(=O)N(C)C(C)C (stereo not drawn) [Compound 291]
IC50 [1]: 0.594 nM
IC50 [2]: 468 nM

Compound: CC(=O)N1CCC2(CCC2N2CC(Cc3cn(-c4ccc(F)cc4C(=O)N(C)C(C)C)c4cncc(C)c34)C2)CC1 (stereo not drawn) [Compound 296]
IC50 [1]: 0.339 nM
IC50 [2]: 549 nM

Compound: CC(=O)N1CCCCC1C1(CN2CC(Cc3cn(-c4ccc(F)cc4C(=O)N(C)C(C)C)c4cncc(C)c34)C2)CC1 (stereo not drawn) [Compound 297]
IC50 [1]: 0.477 nM
IC50 [2]: > 1000 nM

Compound: CC(=O)N1CC2CC(CN3CC(Cc4cn(-c5ccc(F)cc5C(=O)N(C)C(C)C)c5cncc(C)c45)C3)CC(C2)C1 (stereo not drawn) [Compound 300]
IC50 [1]: 0.116 nM
IC50 [2]: 55 nM

Compound: CC(=O)N1[C@H](C)CC(N2CC(Cc3cn(-c4ccc(F)cc4C(=O)N(C)C(C)C)c4cncc(C)c34)C2)C[C@@H]1C (stereo partly drawn) [Compound 301]
IC50 [1]: 0.191 nM
IC50 [2]: 144 nM

Compound: CC(=O)N1[C@@H](C)CC(N2CC(Cc3cn(-c4ccc(F)cc4C(=O)N(C)C(C)C)c4cncc(C)c34)C2)C[C@@H]1C (stereo partly drawn) [Compound 302]
IC50 [1]: 0.05 nM
IC50 [2]: 78 nM

Compound: CC(=O)N1CCC2(CCCC(N3CC(Cc4cn(-c5ccc(F)cc5C(=O)N(C)C(C)C)c5cncc(C)c45)C3)C2)C1 (stereo not drawn) [Compound 303]
IC50 [1]: 0.179 nM
IC50 [2]: ~77 nM

Compound: CC(=O)N1CC2CC1C2C(C)N1CC(Cc2cn(-c3ccc(F)cc3C(=O)N(C)C(C)C)c3cncc(C)c23)C1 (stereo not drawn) [Compound 304]
IC50 [1]: 2.8 nM
IC50 [2]: > 1000 nM

Compound: CC(=O)N1CC2C(CN3CC(Cc4cn(-c5ccc(F)cc5C(=O)N(C)C(C)C)c5cncc(C)c45)C3)C2C1 (stereo not drawn) [Compound 305]
IC50 [1]: 0.146 nM
IC50 [2]: ~297 nM

Compound: CC(=O)N1CC2CCC(N3CC(Cc4cn(-c5ccc(F)cc5C(=O)N(C)C(C)C)c5cncc(C)c45)C3)C2C1 (stereo not drawn) [Compound 306]
IC50 [1]: 0.468 nM
IC50 [2]: 159 nM

Compound: Cc1cncc2c1c(CC1CN(CC3(O)CCOCC3)C1)cn2-c1ccc(F)cc1C(=O)N(C)C(C)C [Compound 307]
IC50 [1]: 0.044 nM
IC50 [2]: 48 nM

Compound: Cc1noc(CN2CC(Cc3cn(-c4ccc(F)cc4C(=O)N(C)C(C)C)c4cncc(C)c34)C2)n1 [Compound 308]
IC50 [1]: 60.2 nM
IC50 [2]: > 1000 nM

Now from value to compound:

IC50 [1]: 0.24 nM
IC50 [2]: 166 nM
Compound: COCC1CCCN1C(=O)c1cc(F)ccc1-n1cc(CC2CN(CC3CCOCC3)C2)c2c(C)cncc21 (stereo not drawn) [Compound 267]

IC50 [1]: 0.368 nM
IC50 [2]: 288 nM
Compound: Cc1cncc2c1c(CC1CN(CC3CCOCC3)C1)cn2-c1ccc(F)cc1C(=O)N1CCC(O)C1C (stereo not drawn) [Compound 271]

IC50 [1]: 0.31 nM
IC50 [2]: ~270 nM
Compound: Cc1cncc2c1c(CC1CN(CC3CCOCC3)C1)cn2-c1ccc(F)cc1C(=O)N1CCC(O)C1(C)C (stereo not drawn) [Compound 272]

IC50 [1]: 1.08 nM
IC50 [2]: > 1000 nM
Compound: Cc1cncc2c1c(CC1CN(CC3CCOCC3)C1)cn2-c1ccc(F)cc1C(=O)N1CC2(O)CC1C2 [Compound 273]

IC50 [1]: 0.532 nM
IC50 [2]: ~462 nM
Compound: Cc1cncc2c1c(CC1CN(CC3CCOCC3)C1)cn2-c1ccc(F)cc1C(=O)N(C)C1(CO)CCC1 [Compound 276]

IC50 [1]: 0.077 nM
IC50 [2]: 51 nM
Compound: Cc1cncc2c1c(CC1CN(CC3CCOCC3)C1)cn2-c1ccc(F)cc1C(=O)N1CCCCC1C (stereo not drawn) [Compound 280]

IC50 [1]: 0.171 nM
IC50 [2]: 338 nM
Compound: CC(=O)N1CCCC(N2CC(Cc3cn(-c4ccc(F)cc4C(=O)N(C)C(C)C)c4cncc(C)c34)C2)CC1 (stereo not drawn) [Compound 295]

IC50 [1]: 0.083 nM
IC50 [2]: 178 nM
Compound: CC(=O)N1CCC(C2(CN3CC(Cc4cn(-c5ccc(F)cc5C(=O)N(C)C(C)C)c5cncc(C)c45)C3)CC2)CC1 [Compound 298]

IC50 [1]: 0.119 nM
IC50 [2]: 351 nM
Compound: CC(=O)N1CCC(CN2CC[C@@H](Cc3cn(-c4ccc(F)cc4C(=O)N4CCC45CCC5)c4cncc(C)c34)C2)CC1 [Compound 310]

IC50 [1]: 0.291 nM
IC50 [2]: 65 nM
Compound: CC(=O)N1CCC(CN2CC[C@@H](Cc3cn(-c4ccc(F)cc4C(=O)N4CCCCC4C)c4cncc(C)c34)C2)CC1 (stereo partly drawn) [Compound 317]

IC50 [1]: 0.22 nM
IC50 [2]: 1380 nM
Compound: COC1CC(C)N(C(=O)c2cc(F)ccc2-n2cc(C[C@@H]3CCN(CC4CCN(C(C)=O)CC4)C3)c3c(C)cncc32)C1 (stereo partly drawn) [Compound 318]

IC50 [1]: 0.819 nM
IC50 [2]: ~616 nM
Compound: CC(=O)N1CCC(CN2CC[C@@H](Cc3cn(-c4ccc(F)cc4C(=O)N4C[C@@H](O)C[C@H]4C)c4cncc(C)c34)C2)CC1 [Compound 327]

IC50 [1]: 0.152 nM
IC50 [2]: 13 nM
Compound: Cc1cncc2c1c(C[C@@H]1CCN(CC3CCN(C(=O)C(C)C)CC3)C1)cn2-c1ccc(F)cc1C(=O)N(CCO)C(C)C [Compound 329]

IC50 [1]: 0.13 nM
IC50 [2]: 10 nM
Compound: Cc1cncc2c1c(C[C@@H]1CCN(CC3CCN(C(=O)C(C)C)CC3)C1)cn2-c1ccc(F)cc1C(=O)N(C[C@H](C)O)C(C)C [Compound 330]

IC50 [1]: 0.117 nM
IC50 [2]: 29 nM
Compound: Cc1cncc2c1c(C[C@@H]1CCN(CC3CCN(C(=O)C(C)C)CC3)C1)cn2-c1ccc(F)cc1C(=O)N(C[C@@H](C)O)C(C)C [Compound 331]

IC50 [1]: 0.13 nM
IC50 [2]: 196 nM
Compound: Cc1cncc2c1c(CC1CCN(CC3CCN(C(=O)C(C)C)CC3)C1)cn2-c1ccc(F)cc1C(=O)N1CC(O)CC1C (stereo not drawn) [Compound 332]
